Tested on: NOMO1
Assay: cell viability relative to DMSO control; higher = less cytotoxic
Details: 48 h
Outline: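 Viability values are per-plate percentages of DMSO wells, with background from cell-free wells. Library compounds in DMSO were pin-dosed, in an 11-point threefold series from 47 μM to 0.79 nM, onto NOMO1 or SEM (500 cells/well) or P12-Ichikawa (1000 cells/well) leukemia cells in 1536-well plates (5 μl). Those cells had been adapted for at least four passages in each medium, and CellTiter-Glo One luminescence was read after 48 h at 37°C.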

[1] = HPLM + 10% dialyzed FBS, 0.000781 µM
[2] = HPLM + 10% dialyzed FBS, 0.00234 µM
[3] = HPLM + 10% dialyzed FBS, 0.00702 µM
[4] = HPLM + 10% dialyzed FBS, 0.0211 µM
[5] = HPLM + 10% dialyzed FBS, 0.0632 µM
[6] = HPLM + 10% dialyzed FBS, 0.19 µM
[7] = HPLM + 10% dialyzed FBS, 0.569 µM
[8] = HPLM + 10% dialyzed FBS, 1.71 µM
[9] = HPLM + 10% dialyzed FBS, 5.12 µM
[10] = HPLM + 10% dialyzed FBS, 15.4 µM
[11] = HPLM + 10% dialyzed FBS, 46.1 µM
[12] = RPMI 5 mM glucose + 10% FBS, 0.000781 µM
[13] = RPMI 5 mM glucose + 10% FBS, 0.00234 µM
[14] = RPMI 5 mM glucose + 10% FBS, 0.00702 µM
[15] = RPMI 5 mM glucose + 10% FBS, 0.0211 µM
[16] = RPMI 5 mM glucose + 10% FBS, 0.0632 µM
[17] = RPMI 5 mM glucose + 10% FBS, 0.19 µM
[18] = RPMI 5 mM glucose + 10% FBS, 0.569 µM
[19] = RPMI 5 mM glucose + 10% FBS, 1.71 µM
[20] = RPMI 5 mM glucose + 10% FBS, 5.12 µM
[21] = RPMI 5 mM glucose + 10% FBS, 15.4 µM
[22] = RPMI 5 mM glucose + 10% FBS, 46.1 µM
[23] = RPMI 5 mM glucose + 10% dialyzed FBS, 0.000781 µM
[24] = RPMI 5 mM glucose + 10% dialyzed FBS, 0.00234 µM
[25] = RPMI 5 mM glucose + 10% dialyzed FBS, 0.00702 µM
[26] = RPMI 5 mM glucose + 10% dialyzed FBS, 0.0211 µM
[27] = RPMI 5 mM glucose + 10% dialyzed FBS, 0.0632 µM
[28] = RPMI 5 mM glucose + 10% dialyzed FBS, 0.19 µM
[29] = RPMI 5 mM glucose + 10% dialyzed FBS, 0.569 µM
[30] = RPMI 5 mM glucose + 10% dialyzed FBS, 1.71 µM
[31] = RPMI 5 mM glucose + 10% dialyzed FBS, 5.12 µM
[32] = RPMI 5 mM glucose + 10% dialyzed FBS, 15.4 µM
[33] = RPMI 5 mM glucose + 10% dialyzed FBS, 46.1 µM

SMILES | cell viability [1] [%] | cell viability [2] [%] | cell viability [3] [%] | cell viability [4] [%] | cell viability [5] [%] | cell viability [6] [%] | cell viability [7] [%] | cell viability [8] [%] | cell viability [9] [%] | cell viability [10] [%] | cell viability [11] [%] | cell viability [12] [%] | cell viability [13] [%] | cell viability [14] [%] | cell viability [15] [%] | cell viability [16] [%] | cell viability [17] [%] | cell viability [18] [%] | cell viability [19] [%] | cell viability [20] [%] | cell viability [21] [%] | cell viability [22] [%] | cell viability [23] [%] | cell viability [24] [%] | cell viability [25] [%] | cell viability [26] [%] | cell viability [27] [%] | cell viability [28] [%] | cell viability [29] [%] | cell viability [30] [%] | cell viability [31] [%] | cell viability [32] [%] | cell viability [33] [%]
CC1=CC(=CC(=C1C\C2=N\CCN2)C)C(C)(C)C | 91.4 | 115 | 107 | 129 | 104 | 109 | 108 | 87.7 | 57.4 | 34.2 | 35.9 | 99.3 | 98.7 | 92.9 | 100 | 114 | 96.3 | 98.4 | 91.1 | 69.5 | 51.5 | 43.9 | 86.8 | 106 | 101 | 100 | 109 | 99.8 | 116 | 78.9 | 49.1 | 56.8 | 50.7
NC(=O)c1ccc(N(C(N)=O)c2c(F)cccc2F)nc1-c1ccc(F)cc1F | 90 | 103 | 113 | 104 | 115 | 115 | 95.3 | 114 | 99.6 | 94.8 | 111 | 80.4 | 86.9 | 95.4 | 100 | 94.3 | 93.8 | 95.2 | 105 | 101 | 84.9 | 88 | 78.2 | 92.4 | 91.1 | 99.1 | 85.4 | 91.6 | 95 | 87.4 | 93.6 | 80.4 | 94.3
CNc1nc(Nc2cnn([C@H]3CCN(C4COC4)C[C@@H]3F)c2Cl)ncc1C(F)(F)F | 105 | 105 | 115 | 116 | 120 | 36.8 | 82.4 | 35.6 | 39.6 | 36.5 | 29.5 | 97.2 | 109 | 110 | 118 | 105 | 107 | 115 | 65.4 | 19.3 | 19.6 | 18 | 98.8 | 110 | 108 | 107 | 118 | 127 | 103 | 126 | 39.6 | 23.6 | 26.5
CN1CCCN(CC1)C2=CC=C3C(=O)\C(=C/4SC5=C(C=CC=C5)N4C3=N2)C(=O)NCC6=CN=C(C)C=N6 | 127 | 122 | 108 | 130 | 110 | 96.6 | 125 | 105 | 116 | 115 | 94.2 | 106 | 103 | 99.8 | 94.1 | 94.4 | 107 | 101 | 105 | 97.3 | 92.4 | 86.7 | 103 | 105 | 111 | 91.2 | 119 | 115 | 102 | 98.7 | 82.9 | 89 | 84.8
O=C(O)c1cccnc1Nc1cccc(C(F)(F)F)c1 | 112 | 124 | 129 | 104 | 122 | 131 | 150 | 142 | 132 | 129 | 135 | 105 | 116 | 108 | 116 | 110 | 128 | 124 | 122 | 125 | 132 | 120 | 97.1 | 101 | 101 | 114 | 114 | 117 | 120 | 111 | 115 | 120 | 106
CNCC[C@H](Oc1cccc2ccccc12)c1cccs1 | 117 | 119 | 145 | 116 | 134 | 117 | 130 | 123 | 90.8 | 41.5 | 26.5 | 108 | 122 | 122 | 116 | 120 | 112 | 124 | 110 | 116 | 44.5 | 26.3 | 105 | 127 | 116 | 119 | 137 | 113 | 112 | 114 | 121 | 46.7 | 27.4
C[C@@H]1CCO[C@H]2CN\3/C=C(/C(=O)NCC4=C(F)C=C(F)C=C4)C(=O)\C(=C3C(=O)N12)O | 107 | 103 | 117 | 116 | 109 | 109 | 101 | 90.6 | 105 | 102 | 108 | 87.6 | 91.1 | 110 | 88.7 | 92.6 | 88.5 | 84.5 | 102 | 86.3 | 95.4 | 93.9 | 90.3 | 82 | 106 | 96.9 | 99.6 | 85.8 | 103 | 98.4 | 95.5 | 87.1 | 96.2
